# Experimental data: PubChem BioAssay AID1845197 (Molecular Pharmacology Branch, DTP, NCI, 2023)
# pIC50: −log10 of the molar value.
# System: 349418-098-R tumor spheroid viability
# Experiment: Anticancer human tumor 349418-098-R patient-derived lung adenocarcinoma cell line growth inhibition
# Details: spheroids with HUVEC and MSC; for pIC50: curve of first compound; for viability, T/C: stronger effect = lower value
# From the text: Multicellular complex tumor spheroid response to DNA repair inhibitors in combination with DNA-damaging drugs
# This study explores the anticancer activities of DNA-damaging drugs and inhibitors of DNA damage repair, both as single agents and in combinations. Complex tumor spheroids comprised of malignant cells, endothelial cells and mesenchymal stem cells served as an in vitro model for human solid tumors. This model system incorporates physiologically relevant features and patient-derived or established malignant cell lines with clinically relevant genetic alterations from many tumor types. Twenty-six patient-derived or established malignant cell lines were evaluated representing sarcoma, melanoma, small cell lung cancer (SCLC), non-small cell lung cancer (NSCLC), as well as bladder, ovarian and pancreatic cancers. The concentration ranges selected for each drug and investigational agent were based upon clinically achievable concentrations if the clinical Cmax of the agent was known.
# Compounds. The drugs and compounds olaparib (NSC753686), talazoparib (NSC767125), berzosertib (NSC777718), elimusertib (NSC800525), nedisertib (NSC802822), VX-984 (NSC792969), AZD-1390 (NSC803789), temozolomide (NSC362856), topotecan (NSC609699), trabectedin (NSC813783), staurosporine (NSC755774), and gemcitabine (NSC613327) were obtained from the National Cancer Institute (NCI) Developmental Therapeutics Program Chemical Repository. The FDA-approved anticancer drug set is available from the Developmental Therapeutics Program at https://dtp.cancer.gov/organization/dscb/obtaining/available_plates.htm. […] The stock solutions were prepared in dimethyl sulfoxide (DMSO, Sigma-Aldrich, St. Louis, MO, cat. D2650) at 400-fold the tested concentration and stored at -70 degrees C. Prior to their use, the stock solutions were diluted in fresh medium and the final DMSO concentration in the assay was 0.25% (v/v). All drugs and investigational agents were tested over a range starting from a high concentration at or near the clinical Cmax and decreasing in half-log increments. If the clinical Cmax for an agent had not been determined, the highest concentration tested was 10 microM.
# Cell Lines. The patient-derived cancer cell (PDC) lines: 156681-154-R-J1-PDC, 283228-195-R-J1-PDC, 287954-098-R-J1-PDC, 292921-168-R-J2-PDC, 349418-098-R-PDC, 425362-245-T-J1-PDC, 556581-035-R-J1-PDC, and BL0293-F563-PDC were received from the NCI Patient-Derived Models Repository (PDMR, https://pdmr.cancer.gov). The established cell lines HS-SY-2 (RRID:CVCL_8719), MPNST, and SYO-1 (RRID:CVCL_7146) were obtained from the Sloan Kettering Institute. The alveolar soft parts sarcoma cell line ASPS-1 (RRID:CVCL_S738) was established at the NCI and grown from internal seed stocks. The following established cell lines were purchased from the American Type Culture Collection (ATCC, Manassas, VA): G-401 (ATCC, cat. CRL-1441, RRID:CVCL_0270), SW982 (ATCC, cat. HTB-93, RRID:CVCL_1734), VA-ES-BJ (ATCC, cat. CRL-2138, RRID:CVCL_1785), NCI-H719 (ATCC, cat. CRL-5837, RRID:CVCL_1582), NCI-H196 (ATCC, cat. CRL-5823, RRID:CVCL_1509), NCI-H841 (ATCC, cat. CRL-5845, RRID:CVCL_1595), NCI-H1618 (ATCC, cat. CRL-5879, RRID:CVCL_1480), NCI-H1876 (ATCC, cat. CRL-5902, RRID:CVCL_1503), DMS 114 (ATCC, cat. CRL-2066; RRID:CVCL_1174), NCI-H211 (ATCC, cat. CRL-5824; RRID:CVCL_1529), and SW 1271 (ATCC, cat. CRL-2177, RRID:CVCL_1716). The small cell lung cancer cell line COR-L88 was purchased from Sigma-Aldrich (cat. 92031917-1VL, RRID:CVCL_1141). The non-small cell lung cancer cell lines NCI-H226 (RRID:CVCL_1544) and NCI-H322M (RRID:CVCL_1557) were established at the NCI and grown from internal seed stocks. Pooled donor human umbilical vein endothelial cells (HUVEC, Lonza, cat. CC-2519) and human mesenchymal stem cells (hMSC, Lonza, cat. PT-2501) were purchased from Lonza (Walkersville, MD).
# Cell Culture. All cells were maintained in an incubator at 37 degrees C and 5% CO2 with 95% humidity. […]
# 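Further: spheroids exposed to compound for 7 days before measurement.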
# 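Wherever viability, T/C is given: percent of vehicle control viability with 100% = DMSO-treated spheroids.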
smiles,measurement,setting,value
Cc1cc(C)c(CNC(=O)c2cc(-c3ccc(CN4CCOCC4)cc3)cc3c2cnn3C2CCCC2)c(=O)[nH]1 + CC[C@@]1(O)C(=O)OCc2c1cc1n(c2=O)Cc2cc3c(CN(C)C)c(O)ccc3nc2-1,pIC50,second compound 0.003 µM,5.18
same,pIC50,second compound 0.00949 µM,5.24
same,pIC50,second compound 0.03 µM,5.99
same,pIC50,second compound 0.0949 µM,> 7.50
same,pIC50,second compound 0.3 µM,> 7.50
same,"viability, T/C","second compound 0.003 µM, first compound 0.0316 µM",98.5%
same,"viability, T/C","second compound 0.003 µM, first compound 0.1 µM",97.9%
same,"viability, T/C","second compound 0.003 µM, first compound 0.316 µM",94.8%
same,"viability, T/C","second compound 0.003 µM, first compound 1 µM",92.6%
same,"viability, T/C","second compound 0.003 µM, first compound 3.16 µM",89.3%
same,"viability, T/C","second compound 0.003 µM, first compound 10 µM",27.5%
same,"viability, T/C","second compound 0.00949 µM, first compound 0.0316 µM",93.4%
same,"viability, T/C","second compound 0.00949 µM, first compound 0.1 µM",95.7%
same,"viability, T/C","second compound 0.00949 µM, first compound 0.316 µM",88.9%
same,"viability, T/C","second compound 0.00949 µM, first compound 1 µM",84.4%
same,"viability, T/C","second compound 0.00949 µM, first compound 3.16 µM",71.9%
same,"viability, T/C","second compound 0.00949 µM, first compound 10 µM",31.4%
same,"viability, T/C","second compound 0.03 µM, first compound 0.0316 µM",73.4%
same,"viability, T/C","second compound 0.03 µM, first compound 0.1 µM",75.2%
same,"viability, T/C","second compound 0.03 µM, first compound 0.316 µM",62.4%
same,"viability, T/C","second compound 0.03 µM, first compound 1 µM",52.7%
same,"viability, T/C","second compound 0.03 µM, first compound 3.16 µM",26.4%
same,"viability, T/C","second compound 0.03 µM, first compound 10 µM",8.63%
same,"viability, T/C","second compound 0.0949 µM, first compound 0.0316 µM",19.2%
same,"viability, T/C","second compound 0.0949 µM, first compound 0.1 µM",14.8%
same,"viability, T/C","second compound 0.0949 µM, first compound 0.316 µM",8.67%
same,"viability, T/C","second compound 0.0949 µM, first compound 1 µM",5.66%
same,"viability, T/C","second compound 0.0949 µM, first compound 3.16 µM",5.2%
same,"viability, T/C","second compound 0.0949 µM, first compound 10 µM",4.15%
same,"viability, T/C","second compound 0.3 µM, first compound 0.0316 µM",2.97%
same,"viability, T/C","second compound 0.3 µM, first compound 0.1 µM",3.59%
same,"viability, T/C","second compound 0.3 µM, first compound 0.316 µM",3.1%
same,"viability, T/C","second compound 0.3 µM, first compound 1 µM",3.16%
same,"viability, T/C","second compound 0.3 µM, first compound 3.16 µM",3.27%
same,"viability, T/C","second compound 0.3 µM, first compound 10 µM",3.11%
Cc1sc2c(c1C)C(c1ccc(Cl)cc1)=NC(CC(=O)Nc1ccc(O)cc1)c1nnc(C)n1-2 (stereo not given) + CC[C@@]1(O)C(=O)OCc2c1cc1n(c2=O)Cc2cc3c(CN(C)C)c(O)ccc3nc2-1,pIC50,second compound 0.003 µM,7.15
same,pIC50,second compound 0.00949 µM,7.16
same,pIC50,second compound 0.03 µM,7.38
same,pIC50,second compound 0.0949 µM,> 8.02
same,pIC50,second compound 0.3 µM,> 8.02
same,"viability, T/C","second compound 0.003 µM, first compound 0.00949 µM",96.2%
same,"viability, T/C","second compound 0.003 µM, first compound 0.03 µM",83.1%
same,"viability, T/C","second compound 0.003 µM, first compound 0.0949 µM",39.1%
same,"viability, T/C","second compound 0.003 µM, first compound 0.3 µM",7.85%
same,"viability, T/C","second compound 0.003 µM, first compound 0.949 µM",0.87%
same,"viability, T/C","second compound 0.003 µM, first compound 3 µM",0.47%
same,"viability, T/C","second compound 0.00949 µM, first compound 0.00949 µM",92.4%
same,"viability, T/C","second compound 0.00949 µM, first compound 0.03 µM",78.1%
same,"viability, T/C","second compound 0.00949 µM, first compound 0.0949 µM",40%
same,"viability, T/C","second compound 0.00949 µM, first compound 0.3 µM",6.43%
same,"viability, T/C","second compound 0.00949 µM, first compound 0.949 µM",0.61%
same,"viability, T/C","second compound 0.00949 µM, first compound 3 µM",0.48%
same,"viability, T/C","second compound 0.03 µM, first compound 0.00949 µM",77.9%
same,"viability, T/C","second compound 0.03 µM, first compound 0.03 µM",61.7%
same,"viability, T/C","second compound 0.03 µM, first compound 0.0949 µM",20.9%
same,"viability, T/C","second compound 0.03 µM, first compound 0.3 µM",5.67%
same,"viability, T/C","second compound 0.03 µM, first compound 0.949 µM",0.64%
same,"viability, T/C","second compound 0.03 µM, first compound 3 µM",0.38%
same,"viability, T/C","second compound 0.0949 µM, first compound 0.00949 µM",12.6%
same,"viability, T/C","second compound 0.0949 µM, first compound 0.03 µM",16.2%
same,"viability, T/C","second compound 0.0949 µM, first compound 0.0949 µM",4.16%
same,"viability, T/C","second compound 0.0949 µM, first compound 0.3 µM",1.07%
same,"viability, T/C","second compound 0.0949 µM, first compound 0.949 µM",0.3%
same,"viability, T/C","second compound 0.0949 µM, first compound 3 µM",0.35%
same,"viability, T/C","second compound 0.3 µM, first compound 0.00949 µM",2.78%
same,"viability, T/C","second compound 0.3 µM, first compound 0.03 µM",2.56%
same,"viability, T/C","second compound 0.3 µM, first compound 0.0949 µM",1.45%
same,"viability, T/C","second compound 0.3 µM, first compound 0.3 µM",0.63%
same,"viability, T/C","second compound 0.3 µM, first compound 0.949 µM",0.55%
same,"viability, T/C","second compound 0.3 µM, first compound 3 µM",0.39%
